The results in this text go back to patent US20090298820A1, “3-SUBSTITUTED-1H-PYRROLO[2,3-B]PYRIDINE AND 3-SUBSTITUTED-1H-PYRROLO[3,2-B]PYRIDINE COMPOUNDS, THEIR USE AS MTOR KINASE AND PI3 KINASE INHIBITORS, AND THEIR SYNTHESES” (Wyeth, priority 2008, published 2009).

Type in all cases: biochemical
One test addresses PI3Kγ (Homo sapiens, UniProt P48736). Put plainly: PI3K-gamma fluorescence polarization assay. The note with it: read-out: PI3Kγ Median IC50. Background: Polarisation of emitted light reports the rotation of a fluorescent probe.
Another test deals with PI3Kα (Homo sapiens, UniProt P42336). Put plainly: PI3K-alpha fluorescence polarization assay. The note with it: read-out: PI3Kα Median IC50.
PI3Kα, sequence (P42336 whole entry, species assumed): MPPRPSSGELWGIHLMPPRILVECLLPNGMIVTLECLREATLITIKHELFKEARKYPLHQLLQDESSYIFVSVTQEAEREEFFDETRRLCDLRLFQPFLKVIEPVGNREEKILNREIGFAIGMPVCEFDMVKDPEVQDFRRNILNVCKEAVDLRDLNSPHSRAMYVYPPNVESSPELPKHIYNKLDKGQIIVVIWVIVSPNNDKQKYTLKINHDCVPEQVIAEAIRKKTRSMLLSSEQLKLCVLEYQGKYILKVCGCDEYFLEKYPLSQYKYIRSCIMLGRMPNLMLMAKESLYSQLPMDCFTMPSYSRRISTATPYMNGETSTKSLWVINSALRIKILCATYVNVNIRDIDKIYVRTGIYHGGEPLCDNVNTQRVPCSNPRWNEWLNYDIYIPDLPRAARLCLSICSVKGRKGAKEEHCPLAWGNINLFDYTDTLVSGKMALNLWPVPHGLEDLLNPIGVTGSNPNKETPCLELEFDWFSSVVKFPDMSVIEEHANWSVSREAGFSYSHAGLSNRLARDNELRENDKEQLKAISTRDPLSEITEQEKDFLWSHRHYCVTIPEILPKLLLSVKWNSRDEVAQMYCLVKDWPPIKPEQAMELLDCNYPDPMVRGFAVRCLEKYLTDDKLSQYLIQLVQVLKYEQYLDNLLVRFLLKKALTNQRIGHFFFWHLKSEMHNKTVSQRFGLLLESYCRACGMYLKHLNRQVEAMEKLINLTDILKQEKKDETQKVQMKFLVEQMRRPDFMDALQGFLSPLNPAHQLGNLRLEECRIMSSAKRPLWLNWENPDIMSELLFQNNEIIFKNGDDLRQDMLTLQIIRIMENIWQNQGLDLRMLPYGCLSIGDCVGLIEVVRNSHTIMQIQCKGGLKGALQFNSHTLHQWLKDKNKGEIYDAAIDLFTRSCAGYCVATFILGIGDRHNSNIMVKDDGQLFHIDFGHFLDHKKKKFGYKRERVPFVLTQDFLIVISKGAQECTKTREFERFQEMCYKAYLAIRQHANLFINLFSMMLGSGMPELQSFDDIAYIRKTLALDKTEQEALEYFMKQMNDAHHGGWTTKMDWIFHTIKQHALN
PI3Kα, sequence (P27986 whole entry partner, species assumed): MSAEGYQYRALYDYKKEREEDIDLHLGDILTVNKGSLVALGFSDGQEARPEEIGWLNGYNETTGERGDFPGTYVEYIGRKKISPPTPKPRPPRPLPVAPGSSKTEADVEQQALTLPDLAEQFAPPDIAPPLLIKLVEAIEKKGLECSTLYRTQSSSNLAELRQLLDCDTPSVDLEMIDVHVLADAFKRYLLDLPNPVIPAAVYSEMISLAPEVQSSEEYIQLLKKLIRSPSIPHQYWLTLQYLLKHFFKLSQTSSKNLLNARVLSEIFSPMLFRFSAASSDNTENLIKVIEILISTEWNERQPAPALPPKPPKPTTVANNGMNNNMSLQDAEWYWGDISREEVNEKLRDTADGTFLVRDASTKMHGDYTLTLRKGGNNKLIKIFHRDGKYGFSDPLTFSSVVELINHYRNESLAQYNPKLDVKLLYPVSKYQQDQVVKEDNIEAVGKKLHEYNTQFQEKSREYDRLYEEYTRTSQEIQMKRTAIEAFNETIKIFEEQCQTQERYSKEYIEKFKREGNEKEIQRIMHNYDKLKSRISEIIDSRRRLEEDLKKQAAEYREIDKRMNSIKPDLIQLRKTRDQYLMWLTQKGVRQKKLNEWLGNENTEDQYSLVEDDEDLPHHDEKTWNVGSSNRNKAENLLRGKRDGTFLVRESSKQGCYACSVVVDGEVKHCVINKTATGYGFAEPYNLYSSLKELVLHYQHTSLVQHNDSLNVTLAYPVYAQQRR
For a further test, the target named is mTOR (Homo sapiens, UniProt P42345). Put plainly: mTOR enzyme assay (DELFIA format, His6-S6K substrate).
Where [1] appears, read: read-out: mTOR Kinase Median IC50.

Molecules are shown by their SMILES. Like-named read-outs stand apart in the source and are kept apart here. Some results are limits rather than exact numbers.

PI3Kγ, sequence (P48736 whole entry, species assumed): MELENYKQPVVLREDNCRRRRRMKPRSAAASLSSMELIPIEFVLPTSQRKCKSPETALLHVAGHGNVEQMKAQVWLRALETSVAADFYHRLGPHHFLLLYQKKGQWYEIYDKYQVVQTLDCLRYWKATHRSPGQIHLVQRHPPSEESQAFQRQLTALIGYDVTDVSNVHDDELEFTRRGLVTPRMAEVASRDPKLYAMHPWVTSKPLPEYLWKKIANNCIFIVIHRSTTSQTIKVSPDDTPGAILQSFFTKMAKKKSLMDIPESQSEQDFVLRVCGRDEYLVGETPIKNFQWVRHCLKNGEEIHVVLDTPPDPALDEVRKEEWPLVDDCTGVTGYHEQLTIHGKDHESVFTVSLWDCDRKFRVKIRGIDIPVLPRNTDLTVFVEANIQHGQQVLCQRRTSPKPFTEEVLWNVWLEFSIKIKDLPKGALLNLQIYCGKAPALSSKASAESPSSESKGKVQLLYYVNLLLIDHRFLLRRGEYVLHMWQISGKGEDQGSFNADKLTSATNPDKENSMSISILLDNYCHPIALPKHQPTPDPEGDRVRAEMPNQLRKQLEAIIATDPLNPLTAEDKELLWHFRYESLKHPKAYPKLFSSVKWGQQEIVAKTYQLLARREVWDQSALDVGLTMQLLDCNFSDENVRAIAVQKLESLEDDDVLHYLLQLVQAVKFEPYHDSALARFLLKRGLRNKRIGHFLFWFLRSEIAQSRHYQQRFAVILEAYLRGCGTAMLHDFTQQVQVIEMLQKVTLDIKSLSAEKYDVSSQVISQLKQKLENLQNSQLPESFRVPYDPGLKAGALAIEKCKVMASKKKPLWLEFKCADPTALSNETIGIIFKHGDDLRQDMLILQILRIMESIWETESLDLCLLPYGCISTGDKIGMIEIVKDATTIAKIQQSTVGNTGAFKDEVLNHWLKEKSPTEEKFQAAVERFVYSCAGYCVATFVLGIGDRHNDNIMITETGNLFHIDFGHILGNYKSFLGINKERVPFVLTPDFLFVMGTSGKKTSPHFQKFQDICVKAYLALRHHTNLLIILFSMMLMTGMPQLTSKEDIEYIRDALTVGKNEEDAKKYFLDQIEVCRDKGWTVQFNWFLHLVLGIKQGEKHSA

`Cn1cc(/C=C2\Oc3cc(O)cc(O)c3C2=O)c2c(-c3ccc(F)c(C(=O)Nc4ccccc4)c3)ccnc21` [Compound 98, 5-{3-[(Z)-(4,6-dihydroxy-3-oxo-1-benzofuran-2(3H)-ylidene)methyl]-1-methyl-1H-pyrrolo[2,3-b]pyridin-4-yl}-2-fluoro-N-phenylbenzamide]: the IC50 (in general, the midpoint of a concentration-inhibition curve) on PI3Kγ is 100 nM; at PI3Kα it was 11 nM; on mTOR (setting [1]) it was 0.2 nM.
As to `CCn1cc(/C=C2\Oc3cccc(O)c3C2=O)c2c(-c3ccccc3)ccnc21` [Compound 116, (2Z)-2-[(1-ethyl-4-phenyl-1H-pyrrolo[2,3-b]pyridin-3-yl)methylene]-4-hydroxy-1-benzofuran-3(2H)-one], the IC50 is greater than 10000 nM on PI3Kγ, 8490 nM at PI3Kα and 23 nM on mTOR (setting [1]).
The corresponding values for `CNC(=O)Nc1ccc2c(c1)C(=O)/C(=C/c1c[nH]c3ncc(OC)cc13)O2` [Compound 119, 1-{(2Z)-2-[(5-methoxy-1H-pyrrolo[2,3-b]pyridin-3-yl)methylene]-3-oxo-2,3-dihydro-1-benzofuran-5-yl}-3-methylurea] are 183 nM, 46 nM and 72 nM.
Take `CNC(=O)Nc1ccc2c(c1)C(=O)/C(=C/c1cn(CCN3CCN(C)CC3)c3ncc(OC)cc13)O2` [Compound 120, 1-[(2Z)-2-({5-methoxy-1-[2-(4-methylpiperazin-1-yl)ethyl]-1H-pyrrolo[2,3-b]pyridin-3-yl}methylene)-3-oxo-2,3-dihydro-1-benzofuran-5-yl]-3-methylurea]: the IC50 at PI3Kγ amounted to 2380 nM; on PI3Kα it was 35 nM; on mTOR it was 285 nM.
Regarding `COc1ccc(-c2ccnc3c2c(/C=C2\Oc4cccc(O)c4C2=O)cn3C)cc1S(=O)(=O)N1CCCCC1` [Compound 123, (2Z)-4-hydroxy-2-({4-[4-methoxy-3-(piperidin-1-ylsulfonyl)phenyl]-1-methyl-1H-pyrrolo[2,3-b]pyridin-3-yl}methylene)-1-benzofuran-3(2H)-one], the values for the IC50 on PI3Kγ, on PI3Kα and on mTOR (setting [1]) were 156 nM, 43 nM and 16.5 nM, respectively.
The corresponding values for `CN1CCN(C(=O)c2ccc(-c3ccnc4c3c(/C=C3\Oc5cccc(O)c5C3=O)cn4C)cc2)CC1` [Compound 124, (2Z)-4-hydroxy-2-[(1-methyl-4-{4-[(4-methylpiperazin-1-yl)carbonyl]phenyl}-1H-pyrrolo[2,3-b]pyridin-3-yl)methylene]-1-benzofuran-3(2H)-one] are 184 nM, 70 nM and 1 nM.
The corresponding values for `Cn1cc(/C=C2\Oc3cccc(O)c3C2=O)c2c(-c3cccc(O)c3)ccnc21` [Compound 125, (2Z)-4-hydroxy-2-{[4-(3-hydroxyphenyl)-1-methyl-1H-pyrrolo[2,3-b]pyridin-3-yl]methylene}-1-benzofuran-3(2H)-one] are 93 nM, 43 nM and 13 nM.
The corresponding values for `CN1CCOc2cc(-c3ccnc4c3c(/C=C3\Oc5cccc(O)c5C3=O)cn4C)ccc21` [Compound 126, (2Z)-4-hydroxy-2-{[1-methyl-4-(4-methyl-3,4-dihydro-2H-1,4-benzoxazin-7-yl)-1H-pyrrolo[2,3-b]pyridin-3-yl]methylene}-1-benzofuran-3(2H)-one] are 8640 nM, 802 nM and 6.2 nM.
As for `Cn1cc(/C=C2\Oc3cccc(O)c3C2=O)c2c(-c3ccc(-c4ccco4)cc3)ccnc21` [Compound 127, (2Z)-2-({4-[4-(2-furyl)phenyl]-1-methyl-1H-pyrrolo[2,3-b]pyridin-3-yl}methylene)-4-hydroxy-1-benzofuran-3(2H)-one], the figures for the IC50 at PI3Kγ, on PI3Kα and at mTOR (setting [1]) were 829 nM, 107 nM and 8.1 nM, respectively.
The matching figures for `Cn1cc(/C=C2\Oc3cccc(O)c3C2=O)c2c(-c3ccc(CN4CCOCC4)cc3)ccnc21` [Compound 130, (2Z)-4-hydroxy-2-({1-methyl-4-[4-(morpholin-4-ylmethyl)phenyl]-1H-pyrrolo[2,3-b]pyridin-3-yl}methylene)-1-benzofuran-3(2H)-one]: 263 nM, 154 nM and 3.2 nM.
Regarding `Cn1cc(/C=C2\Oc3cccc(O)c3C2=O)c2c(-c3ccc(N4CCNCC4)cc3)ccnc21` [Compound 135, (2Z)-4-hydroxy-2-{[1-methyl-4-(4-piperazin-1-ylphenyl)-1H-pyrrolo[2,3-b]pyridin-3-yl]methylene}-1-benzofuran-3(2H)-one], the 50% inhibitory concentration (IC50) on PI3Kγ was 1420 nM; at PI3Kα it was 156 nM; on mTOR (setting [1]), 10 nM.
The corresponding values for `Cn1cc(/C=C2\Oc3cccc(O)c3C2=O)c2c(-c3ccc(C(=O)N4CCNCC4)cc3)ccnc21` [Compound 136, (2Z)-4-hydroxy-2-({1-methyl-4-[4-(piperazin-1-ylcarbonyl)phenyl]-1H-pyrrolo[2,3-b]pyridin-3-yl}methylene)-1-benzofuran-3(2H)-one] are 106 nM, 27 nM and 2 nM.
The matching figures for `Cn1cc(/C=C2\Oc3cccc(O)c3C2=O)c2c(-c3ccc(F)c(C(=O)Nc4ccccc4)c3)ccnc21` [Compound 137, 2-fluoro-5-{3-[(Z)-(4-hydroxy-3-oxo-1-benzofuran-2(3H)-ylidene)methyl]-1-methyl-1H-pyrrolo[2,3-b]pyridin-4-yl}-N-phenylbenzamide]: 256 nM, 122 nM and 4.9 nM.
The corresponding values for `Cn1cc(/C=C2\Oc3cccc(O)c3C2=O)c2c(-c3cccc(C(=O)Nc4ccccc4)c3)ccnc21` [Compound 138, 3-{3-[(Z)-(4-hydroxy-3-oxo-1-benzofuran-2(3H)-ylidene)methyl]-1-methyl-1H-pyrrolo[2,3-b]pyridin-4-yl}-N-phenylbenzamide] are 1230 nM, 141 nM and 7.8 nM.
As for `Cn1cc(/C=C2\Oc3cccc(O)c3C2=O)c2c(-c3ccc(N4CCCCC4)cc3)ccnc21` [Compound 142, (2Z)-4-hydroxy-2-{[1-methyl-4-(4-piperidin-1-ylphenyl)-1H-pyrrolo[2,3-b]pyridin-3-yl]methylidene}-1-benzofuran-3(2H)-one], the values for the IC50 at PI3Kγ, on PI3Kα and on mTOR (setting [1]) were greater than 10000 nM, 1580 nM and 8 nM, respectively.
The matching figures for `Cn1cc(/C=C2\Oc3cccc(O)c3C2=O)c2c(-c3ccc(N4CCCC4)cc3)ccnc21` [Compound 143, (2Z)-4-hydroxy-2-{[1-methyl-4-(4-pyrrolidin-1-ylphenyl)-1H-pyrrolo[2,3-b]pyridin-3-yl]methylidene}-1-benzofuran-3(2H)-one]: greater than 10000 nM, 1320 nM and 80.5 nM.
The matching figures for `Cn1cc(/C=C2\Oc3cccc(O)c3C2=O)c2c(-c3ccc(C(=O)N4CCN(CCO)CC4)cc3)ccnc21` [Compound 146, (2Z)-4-hydroxy-2-{[4-(4-{[4-(2-hydroxyethyl)piperazin-1-yl]carbonyl}phenyl)-1-methyl-1H-pyrrolo[2,3-b]pyridin-3-yl]methylidene}-1-benzofuran-3(2H)-one]: 101 nM, 100 nM and 0.4 nM.
The corresponding values for `Cn1cc(/C=C2\Oc3cccc(O)c3C2=O)c2c(-c3ccc(C(=O)NCCCO)cc3)ccnc21` [Compound 147, 4-{3-[(Z)-(4-hydroxy-3-oxo-1-benzofuran-2(3H)-ylidene)methyl]-1-methyl-1H-pyrrolo[2,3-b]pyridin-4-yl}-N-(3-hydroxypropyl)benzamide] are 54 nM, 38 nM and 0.6 nM.
Turning to `COCCNC(=O)c1ccc(-c2ccnc3c2c(/C=C2\Oc4cccc(O)c4C2=O)cn3C)cc1` [Compound 149, 4-{3-[(Z)-(4-hydroxy-3-oxo-1-benzofuran-2(3H)-ylidene)methyl]-1-methyl-1H-pyrrolo[2,3-b]pyridin-4-yl}-N-(2-methoxyethyl)benzamide], the IC50 at PI3Kγ amounted to 62 nM; at PI3Kα, 48 nM; at mTOR (setting [1]), 1.7 nM.
With `CN(C)CCNC(=O)c1ccc(-c2ccnc3c2c(/C=C2\Oc4cccc(O)c4C2=O)cn3C)cc1` [Compound 158, N-[2-(dimethylamino)ethyl]-4-{3-[(Z)-(4-hydroxy-3-oxo-1-benzofuran-2(3H)-ylidene)methyl]-1-methyl-1H-pyrrolo[2,3-b]pyridin-4-yl}benzamide], the IC50 on PI3Kγ came out at 149 nM; on PI3Kα it was 179 nM; at mTOR (setting [1]) it was 8.6 nM.
As for `CN(C)CCOc1cccc2c1C(=O)/C(=C/c1cn(C)c3nccc(-c4ccccc4)c13)O2` [Compound 159, (2Z)-4-[2-(dimethylamino)ethoxy]-2-[(1-methyl-4-phenyl-1H-pyrrolo[2,3-b]pyridin-3-yl)methylidene]-1-benzofuran-3(2H)-one], the results for the IC50 at PI3Kγ, on PI3Kα and on mTOR (setting [1]) were 4150 nM, 1450 nM and 70.5 nM, respectively.
The matching figures for `Cn1cc(/C=C2\Oc3cccc(O)c3C2=O)c2c(N3CC4COC(C3)O4)ccnc21` (stereo not drawn) [Compound 165, (2Z)-2-{[4-(6,8-dioxa-3-azabicyclo[3.2.1]oct-3-yl)-1-methyl-1H-pyrrolo[2,3-b]pyridin-3-yl]methylidene}-4-hydroxy-1-benzofuran-3(2H)-one]: 144 nM, 25 nM and 2.7 nM.
Regarding `CNC(=O)Nc1ccc2c(c1)C(=O)/C(=C/c1cn(C)c3nccc(-c4ccc(C(=O)N5CCN(CCO)CC5)cc4)c13)O2` [Compound 166, 1-[(2Z)-2-{[4-(4-{[4-(2-hydroxyethyl)piperazin-1-yl]carbonyl}phenyl)-1-methyl-1H-pyrrolo[2,3-b]pyridin-3-yl]methylidene}-3-oxo-2,3-dihydro-1-benzofuran-5-yl]-3-methylurea], the figures for the half-inhibitory concentration (IC50) on PI3Kγ, on PI3Kα and on mTOR (setting [1]) were 343 nM, 252 nM and 15.5 nM, respectively.
